Data on seven molecules can be found in ChEMBL document CHEMBL2069206 (J Med Chem, 2012).

The target of experiment [1] is T1, Adenosine receptor A1 (Homo sapiens) (UniProt P30542).
T1 sequence (whole entry): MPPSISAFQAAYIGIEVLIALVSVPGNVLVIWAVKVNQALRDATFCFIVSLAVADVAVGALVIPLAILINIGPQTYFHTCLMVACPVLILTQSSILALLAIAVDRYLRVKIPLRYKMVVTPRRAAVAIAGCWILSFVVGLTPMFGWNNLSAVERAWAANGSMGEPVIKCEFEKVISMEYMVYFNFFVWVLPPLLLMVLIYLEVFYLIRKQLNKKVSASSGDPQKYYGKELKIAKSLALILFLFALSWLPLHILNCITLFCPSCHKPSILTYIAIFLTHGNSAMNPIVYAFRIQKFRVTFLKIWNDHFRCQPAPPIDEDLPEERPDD
Briefly: Agonist activity at human A1 adenosine receptor expressed in CHO cells assessed as inhibition of forskolin-induced cAMP accumulation after 30 mins relative to NECA. The experiment is classed as functional, cell-based. In general terms: Cyclic AMP is a second messenger, typically raised through Gs and lowered through Gi signalling.

For experiment [2], the target named is T2, Adenosine receptor A1 (Homo sapiens, UniProt P30542).
T2 sequence (P30542 whole entry): T1 sequence (whole entry)
Briefly: Displacement of 3[H]R-PIA from human A1 adenosine receptor expressed in CHO cells after 60 mins by Liquid scintillation analysis. Format: cell-based.

Experiment [3] deals with T3, Adenosine receptor A2a (Homo sapiens, UniProt P29274). The experiment can be described thus: Displacement of 3[H]CGS21680 from human A2A adenosine receptor expressed in HEK293 cells after 60 mins by Liquid scintillation analysis. Format: cell-based.
T3 sequence (P29274 whole entry): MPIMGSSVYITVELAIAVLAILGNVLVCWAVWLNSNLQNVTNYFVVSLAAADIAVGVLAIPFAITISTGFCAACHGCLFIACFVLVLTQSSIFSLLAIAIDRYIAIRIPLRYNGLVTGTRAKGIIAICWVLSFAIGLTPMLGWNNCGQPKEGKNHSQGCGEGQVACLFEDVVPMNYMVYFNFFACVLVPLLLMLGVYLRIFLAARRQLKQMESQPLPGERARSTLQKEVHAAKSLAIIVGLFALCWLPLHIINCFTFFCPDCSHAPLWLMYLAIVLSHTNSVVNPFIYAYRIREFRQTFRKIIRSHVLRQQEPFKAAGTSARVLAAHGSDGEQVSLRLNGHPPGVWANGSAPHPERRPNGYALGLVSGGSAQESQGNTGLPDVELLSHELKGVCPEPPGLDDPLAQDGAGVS
The target in the next experiment is T4, Adenosine receptor A3 (Homo sapiens, UniProt P0DMS8).
T4 sequence (P0DMS8 whole entry): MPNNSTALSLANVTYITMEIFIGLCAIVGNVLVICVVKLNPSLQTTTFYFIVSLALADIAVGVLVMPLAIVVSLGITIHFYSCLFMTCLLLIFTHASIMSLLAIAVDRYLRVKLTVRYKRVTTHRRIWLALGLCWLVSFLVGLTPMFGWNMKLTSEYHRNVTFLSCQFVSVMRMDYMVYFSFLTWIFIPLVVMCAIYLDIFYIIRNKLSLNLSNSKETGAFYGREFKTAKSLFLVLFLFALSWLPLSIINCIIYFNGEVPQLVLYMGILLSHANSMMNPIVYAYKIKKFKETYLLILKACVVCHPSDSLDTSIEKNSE
Briefly: Displacement of [125I]I-AB-MECA from human A3 adenosine receptor expressed in CHO cells after 60 mins gamma counter. The experiment is classed as cell-based. (In a radioligand displacement assay an active substance lowers the binding of a labelled ligand.)

Experiment [4] addresses T3, Adenosine receptor A2a. Briefly: Agonist activity at human A2A adenosine receptor expressed in CHO cells assessed as stimulation of forskolin-induced cAMP accumulation after 30 mins relative to NECA. The experiment is classed as functional, cell-based.
Experiment [5] addresses T3, Adenosine receptor A2a. Briefly: Agonist activity at human A2A adenosine receptor expressed in CHO cells assessed as stimulation of forskolin-induced cAMP accumulation after 30 mins. The experiment is classed as functional, cell-based.
For experiment [6], the target named is T1, Adenosine receptor A1 (Homo sapiens). The experiment can be described thus: Partial agonist activity at human A1 adenosine receptor expressed in CHO cells assessed as inhibition of forskolin-induced cAMP accumulation after 30 mins relative to NECA. The experiment is classed as functional, cell-based.
Experiment [7] has as its target T5, Adenosine receptor A1 (Rattus norvegicus) (UniProt P25099).
T5 sequence (whole entry): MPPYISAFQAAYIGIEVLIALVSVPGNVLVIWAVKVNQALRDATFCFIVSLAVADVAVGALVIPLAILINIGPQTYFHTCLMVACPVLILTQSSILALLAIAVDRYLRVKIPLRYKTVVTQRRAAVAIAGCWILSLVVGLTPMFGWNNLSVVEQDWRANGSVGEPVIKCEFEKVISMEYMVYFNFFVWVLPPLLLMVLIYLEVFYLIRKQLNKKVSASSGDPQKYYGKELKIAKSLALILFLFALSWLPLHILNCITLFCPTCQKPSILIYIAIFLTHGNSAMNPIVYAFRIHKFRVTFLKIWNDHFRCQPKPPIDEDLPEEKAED
As to conditions: CHO, 10 uM.

The target of experiment [8] is Adenosine receptor A2a (Rattus norvegicus) (UniProt P30543). As to conditions: HEK293, 10 uM.
Chain of Adenosine receptor A2a (Rattus norvegicus) (P30543 whole entry): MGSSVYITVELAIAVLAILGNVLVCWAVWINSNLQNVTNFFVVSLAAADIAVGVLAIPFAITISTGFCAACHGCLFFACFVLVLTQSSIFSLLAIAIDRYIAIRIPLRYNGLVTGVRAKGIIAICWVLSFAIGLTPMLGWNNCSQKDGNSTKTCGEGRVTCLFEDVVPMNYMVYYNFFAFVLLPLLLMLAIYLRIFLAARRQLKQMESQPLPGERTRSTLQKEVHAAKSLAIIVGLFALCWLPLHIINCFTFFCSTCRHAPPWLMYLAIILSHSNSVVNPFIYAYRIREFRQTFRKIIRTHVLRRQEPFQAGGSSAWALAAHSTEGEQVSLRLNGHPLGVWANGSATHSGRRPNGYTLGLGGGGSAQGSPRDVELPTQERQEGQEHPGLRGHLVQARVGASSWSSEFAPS
Experiment [9] deals with T2, Adenosine receptor A1. The experiment can be described thus: Partial agonist activity at human A1 adenosine receptor expressed in CHO cells assessed as inhibition of forskolin-induced cAMP accumulation after 30 mins. The experiment is classed as functional, cell-based.

One may read the Ki as a dissociation constant, usually derived from enzyme kinetics or from competition with a known ligand. A lower Ki goes with a stronger hold on the target. For orientation: EC50 means the concentration that produces a half-maximal response. By inhibition is commonly meant the share of the control response that was lost under treatment. A lower inhibition goes with a weak effect.

As to `CCNC(=O)[C@H]1O[C@@H](n2cnc3c(N)ncnc32)[C@H](O)[C@@H]1O`, the Efficacy in [1] is 100%.

In the case of `Nc1ncnc2c1ncn2[C@@H]1O[C@H](C(=O)NC2CCCC2)[C@@H](O)[C@H]1O`, the figures for the Ki on Adenosine receptor A1 [2], on Adenosine receptor A2a [3] and on Adenosine receptor A3 were 0.027 µM, 0.65 µM and 0.07 µM, respectively. For the same molecule, the Efficacy worked out at 92.5% in experiment [1] and 75% at Adenosine receptor A2a [4]. Further, the EC50 at Adenosine receptor A2a [5] was found to be 0.225 µM.

With `Nc1ncnc2c1ncn2[C@@H]1O[C@H](C(=O)NC2CC2)[C@@H](O)[C@H]1O`, the Ki turned out to be 0.0019 µM at Adenosine receptor A1 [2], 0.05 µM at Adenosine receptor A2a [3] and 0.18 µM at Adenosine receptor A3. For the same molecule, the Efficacy in experiment [1] is 95.4%. For the same molecule, the EC50 on Adenosine receptor A2a [5] came out at 0.0229 µM.

On Adenosine receptor A1 [2], `NCCCNC(=O)[C@H]1O[C@@H](n2cnc3c(N)ncnc32)[C@H](O)[C@@H]1O` had a Ki above 10 µM.

Take `Nc1ncnc2c1ncn2[C@@H]1O[C@H](C(=O)NCC(F)(F)F)[C@@H](O)[C@H]1O`: the Ki came out at […] at Adenosine receptor A1 [2] and 0.7 µM at Adenosine receptor A3. The Efficacy in [6] amounted to 73.4%.

On to `NCCNC(=O)[C@H]1O[C@@H](n2cnc3c(N)ncnc32)[C@H](O)[C@@H]1O`, for which the inhibition in [7] and in experiment [8] was above 10% each time.

On to `Nc1ncnc2c1ncn2[C@@H]1O[C@H](C(=O)NC2CCC2)[C@@H](O)[C@H]1O`, for which the values for the Ki on Adenosine receptor A2a [3] and at Adenosine receptor A3 were 0.034 µM and 0.07 µM, respectively. For the same molecule, the Efficacy at Adenosine receptor A2a [4] came to 99%; in [6], 65.2%. Besides, the EC50 at Adenosine receptor A1 [9] worked out at 0.0151 µM; on Adenosine receptor A2a [5] it was 0.0268 µM.
